Source: ChEMBL document CHEMBL6103591, “Discovery of naphthoquinone-furo-piperidone derivatives as dual targeting agents of STAT3 and NQO1 for the treatment of breast cancer” (Eur J Med Chem, 2025)
The source made the active and inactive calls. The calls are words filed in the database; no cut-off is given here.

Key:
MDA-MB-468 [1] = assay: Induction of apoptosis in human MDA-MB-468 cells assessed as increase in Bax level at 1.5 to 3 uM by Western blotting analysis; type: functional, cell-based; details: dose 1.5-3 µM
MDA-MB-231 [2] = assay: Induction of apoptosis in human MDA-MB-231 cells assessed as increase in Bax level at 1.5 to 3 uM by Western blotting analysis; type: functional, cell-based; details: dose 1.5-3 µM
Mus musculus = assay: In vivo inhibition of STAT3 in female BALB/c nude mouse xenografted with human MDA-MB-231 cells assessed as decrease in p-STAT3 level in tumor tissue at 10 mg/kg, ip administered daily and measured every 2 days for 21 days by IHC staining analysis; type: functional, organism-based; details: time 21.0 day
[3] = biological target: T1, Signal transducer and activator of transcription 3 (Homo sapiens, UniProt P40763); assay: Inhibition of phosphorylated STAT3 nuclear translocation in human MDA-MB-231 cells incubated for 6 hrs by immunofluorescence assay; type: cell-based; details: dose 1.5-3 µM
T1 sequence (P40763 whole entry): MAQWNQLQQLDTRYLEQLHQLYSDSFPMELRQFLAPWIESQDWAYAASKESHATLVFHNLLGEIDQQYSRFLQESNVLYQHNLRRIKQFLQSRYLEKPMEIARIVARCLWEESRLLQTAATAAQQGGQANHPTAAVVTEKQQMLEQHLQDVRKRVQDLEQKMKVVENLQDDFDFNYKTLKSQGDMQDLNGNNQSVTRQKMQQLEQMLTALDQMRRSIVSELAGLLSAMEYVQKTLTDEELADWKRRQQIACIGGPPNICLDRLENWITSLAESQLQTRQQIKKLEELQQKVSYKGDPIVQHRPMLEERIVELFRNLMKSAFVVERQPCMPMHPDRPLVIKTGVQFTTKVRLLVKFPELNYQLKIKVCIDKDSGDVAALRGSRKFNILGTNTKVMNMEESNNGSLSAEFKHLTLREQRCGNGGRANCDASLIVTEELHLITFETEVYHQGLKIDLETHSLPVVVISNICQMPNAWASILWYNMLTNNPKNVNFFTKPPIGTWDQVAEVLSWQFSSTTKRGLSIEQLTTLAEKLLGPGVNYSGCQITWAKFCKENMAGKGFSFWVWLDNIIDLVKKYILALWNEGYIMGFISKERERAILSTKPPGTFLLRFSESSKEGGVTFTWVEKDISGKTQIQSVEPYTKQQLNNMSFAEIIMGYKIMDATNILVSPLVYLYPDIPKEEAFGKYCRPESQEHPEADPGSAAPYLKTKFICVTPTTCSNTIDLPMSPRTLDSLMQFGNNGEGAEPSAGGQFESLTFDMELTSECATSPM

MDA-MB-231 [4] = assay: Antitumor activity against human MDA-MB-231 cells xenografted in female BALB/c nude mouse assessed as reduction in tumor weight at 10 mg/kg, ip administered daily and measured every 2 days for 21 days; type: functional, organism-based; details: time 21.0 day
MCF7 [5] = assay: Induction of DNA damage in human MCF7 cells at 1.25 uM incubated for 24 hrs by fluorescence microscopy based alkaline comet assay; type: functional, cell-based
MDA-MB-468 [6] = assay: Induction of apoptosis in human MDA-MB-468 cells assessed as increase in cleaved PARP level at 1.5 to 3 uM by Western blotting analysis; type: functional, cell-based; details: dose 1.5-3 µM, time 24.0 hrs
MDA-MB-231 [7] = assay: Antimetastatic activity against human MDA-MB-231 cells assessed as reduction in cell invasion incubated for 24 hrs by crystal violet staining based transwell invasion assay; type: functional; details: dose 0.1875-3 µM
[8] = biological target: T1, Signal transducer and activator of transcription 3; assay: Inhibition of STAT3 in human MDA-MB-231 cells assessed as downregulation of c-Myc expression measured after 24 hrs by Western blot analysis; type: cell-based; details: dose 0.6-2.5 µM
MDA-MB-231 [9] = assay: Effect on STAT1 expression level in human MDA-MB-231 cells at 0.6 to 2.5 uM incubated for 24 hrs by Western blot analysis; type: functional, cell-based; details: dose 0.6-2.5 µM
MDA-MB-468 [10] = assay: Antiproliferative activity against human MDA-MB-468 cells transfected with shSTAT3 RNA at 1.5 uM incubated for 24 hrs by MTT assay; type: functional, cell-based
MDA-MB-231 [11] = assay: Antimetastatic activity against human MDA-MB-231 cells assessed as reduction in cell migration incubated for 24 hrs by crystal violet staining based transwell assay; type: functional; details: dose 0.1875-3 µM
MCF7 [12] = assay: Induction of ROS generation in NQO1-rich human MCF7 cells assessed as increase in intracellular ROS level at 1.25 uM in presence of DIC by DCFH-DA staining based confocal microscopic analysis; type: functional, cell-based
MDA-MB-231 [13] = assay: Antiproliferative activity against human MDA-MB-231 cells transfected with shSTAT3 RNA at 1.5 uM incubated for 24 hrs by MTT assay; type: functional, cell-based
MDA-MB-231 [14] = assay: Inhibition of STAT5 phosphorylation at Tyr694 residue in human MDA-MB-231 cells at 0.6 to 2.5 uM incubated for 24 hrs by Western blot analysis; type: cell-based; details: dose 0.6-2.5 µM
MDA-MB-231 [15] = assay: Antitumor activity against human MDA-MB-231 cells xenografted in female BALB/c nude mouse assessed as reduction in tumor volume at 10 mg/kg, ip administered daily and measured every 2 days for 21 days; type: functional, organism-based; details: time 21.0 day
[16] = biological target: T1, Signal transducer and activator of transcription 3; assay: Inhibition of STAT3 in human MDA-MB-231 cells assessed as downregulation of Cyclin-D1 expression measured after 24 hrs by Western blot analysis; type: cell-based; details: dose 0.6-2.5 µM
MDA-MB-468 [17] = assay: Inhibition of colony formation in human MDA-MB-468 cells at 3 uM incubated for 10 to 15 days by crystal violet staining based microscopic analysis; type: functional, cell-based; details: time 10-15 day
[18] = biological target: T2, Signal transducer and activator of transcription 1-alpha/beta (Homo sapiens) (UniProt P42224); assay: Inhibition of STAT1 phosphorylation at Tyr701 residue in human MDA-MB-231 cells at 0.6 to 2.5 uM incubated for 24 hrs by Western blot analysis; type: cell-based; details: dose 0.6-2.5 µM
T2 sequence (whole entry): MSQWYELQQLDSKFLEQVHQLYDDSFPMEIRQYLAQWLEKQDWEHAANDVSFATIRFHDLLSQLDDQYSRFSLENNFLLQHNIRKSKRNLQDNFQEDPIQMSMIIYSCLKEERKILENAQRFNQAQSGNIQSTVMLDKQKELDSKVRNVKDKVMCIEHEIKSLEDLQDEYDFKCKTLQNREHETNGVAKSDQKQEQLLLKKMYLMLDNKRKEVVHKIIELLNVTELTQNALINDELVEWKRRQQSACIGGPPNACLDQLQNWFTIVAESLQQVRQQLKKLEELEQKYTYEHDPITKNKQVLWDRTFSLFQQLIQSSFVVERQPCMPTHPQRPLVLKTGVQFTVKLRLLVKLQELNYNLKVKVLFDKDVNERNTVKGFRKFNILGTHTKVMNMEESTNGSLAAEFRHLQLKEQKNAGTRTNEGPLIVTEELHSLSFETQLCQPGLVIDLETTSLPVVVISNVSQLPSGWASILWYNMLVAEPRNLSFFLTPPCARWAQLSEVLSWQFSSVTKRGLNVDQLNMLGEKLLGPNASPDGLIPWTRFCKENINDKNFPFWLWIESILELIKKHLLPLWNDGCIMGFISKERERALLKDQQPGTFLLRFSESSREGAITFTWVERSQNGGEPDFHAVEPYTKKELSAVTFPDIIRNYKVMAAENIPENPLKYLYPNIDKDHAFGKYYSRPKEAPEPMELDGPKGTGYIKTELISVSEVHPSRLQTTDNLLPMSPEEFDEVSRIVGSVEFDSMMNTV

MDA-MB-231 [19] = assay: Antitumor activity against human MDA-MB-231 cells xenografted in female BALB/c nude mouse assessed as increase in TUNEL-positive cells in tumor tissue at 10 mg/kg, ip administered daily and measured every 2 days for 21 days by immunofluorescence analysis; type: functional, organism-based; details: time 21.0 day
MDA-MB-231 [20] = assay: Effect on STAT5 expression level in human MDA-MB-231 cells at 0.6 to 2.5 uM incubated for 24 hrs by Western blot analysis; type: functional, cell-based; details: dose 0.6-2.5 µM
MDA-MB-231 [21] = assay: Inhibition of colony formation in human MDA-MB-231 cells at 3 uM incubated for 10 to 15 days by crystal violet staining based microscopic analysis; type: functional, cell-based; details: time 10-15 day
MCF7 [22] = assay: Induction of DNA damage in human MCF7 cells at 1.25 uM incubated for 24 hrs in presence of DIC by fluorescence microscopy based alkaline comet assay; type: functional, cell-based
MDA-MB-231 [23] = assay: Induction of apoptosis in human MDA-MB-231 cells assessed as increase in cleaved-caspase 3 level at 1.5 to 3 uM by Western blotting analysis; type: functional, cell-based; details: dose 1.5-3 µM
MCF7 [24] = assay: Induction of ROS generation in NQO1-rich human MCF7 cells assessed as increase in intracellular ROS level by DCFH-DA staining based confocal microscopic analysis; type: functional, cell-based; details: dose 1.25-2.5 µM
[25] = biological target: T1, Signal transducer and activator of transcription 3; assay: Inhibition of phosphorylated STAT3 nuclear translocation in human MDA-MB-468 cells incubated for 6 hrs by immunofluorescence assay; type: cell-based; details: dose 1.5-3 µM
[26] = biological target: T1, Signal transducer and activator of transcription 3; assay: Inhibition of STAT3 in human MDA-MB-231 cells assessed as downregulation of survivin expression measured after 24 hrs by Western blot analysis; type: cell-based; details: dose 0.6-2.5 µM
MDA-MB-231 [27] = assay: Induction of apoptosis in human MDA-MB-231 cells assessed as increase in cleaved PARP level at 1.5 to 3 uM by Western blotting analysis; type: functional, cell-based; details: dose 1.5-3 µM
MDA-MB-468 [28] = assay: Induction of apoptosis in human MDA-MB-468 cells assessed as increase in cleaved-caspase 3 level at 1.5 to 3 uM by Western blotting analysis; type: functional, cell-based; details: dose 1.5-3 µM
[29] = biological target: T1, Signal transducer and activator of transcription 3; assay: Inhibition of STAT3 activation in human MDA-MB-231 cells assessed as reduction in STAT3 phosphorylation at Tyr705 residue at 1 uM measured after 24 hrs by Western blot analysis relative to control; type: cell-based

With `O=C1C(=O)c2c(oc3c2CCN(CCN2CCCCC2)C3=O)-c2ccccc21` the Activity (MDA-MB-468 [1]) was “Active”, the Activity (MDA-MB-231 [2]) was “Active” and the inhibition (Mus musculus) was “Active”. For the same molecule, the inhibition [3] was “Dose-dependent-effect”, the Activity (MDA-MB-231 [4]) was “Active” and the Activity (MCF7 [5]) was “Active”. The Activity (MDA-MB-468 [6]) was “Active”, the Activity (MDA-MB-231 [7]) was “Dose-dependent-effect” and the inhibition [8] was “Dose-dependent-effect”. For the same molecule, the Activity (MDA-MB-231 [9]) was “inactive”, the Activity (MDA-MB-468 [10]) was “Active; Less Sensitivity Observed” and the Activity (MDA-MB-231 [11]) was “Dose-dependent-effect”. For the same molecule, the Activity (MCF7 [12]) was “inactive”, the Activity (MDA-MB-231 [13]) was “Active; Less Sensitivity Observed” and the inhibition (MDA-MB-231 [14]) was “inactive”. The Activity (MDA-MB-231 [15]) was “Active”, the inhibition [16] was “Dose-dependent-effect” and the inhibition (MDA-MB-468 [17]) was “Active”. The inhibition [18] was “inactive”, the Activity (MDA-MB-231 [19]) was “Active” and the Activity (MDA-MB-231 [20]) was “inactive”. For the same molecule, the inhibition (MDA-MB-231 [21]) was “Active”, the Activity (MCF7 [22]) was “inactive” and the Activity (MDA-MB-231 [23]) was “Active”. The Activity (MCF7 [24]) was “Dose-dependent-effect”, the inhibition [25] was “Dose-dependent-effect” and the inhibition [26] was “Dose-dependent-effect”. The Activity (MDA-MB-231 [27]) was “Active”, the Activity (MDA-MB-468 [28]) was “Active” and the inhibition [29] was “Active”.
